# Assays:
# [1] = system: virus particles; assay: electron microscope study of virus particles before and after inactivation; conditions: inactivation for 60 min, 1 min and 30 seconds
# [2] = system: Sinbis, Sendai and VSV viruses; conditions: 4° C.; cited from earlier work
# [3] = system: HIV virus; conditions: 5 minute contact, room temperature; ether removed by distillation at 50-52° C.; cited from earlier work
# [4] = target: blood protein factor VIII (Homo sapiens, UniProt P00451); conditions: cited from earlier work
# Chain of blood protein factor VIII (P00451 20-2351): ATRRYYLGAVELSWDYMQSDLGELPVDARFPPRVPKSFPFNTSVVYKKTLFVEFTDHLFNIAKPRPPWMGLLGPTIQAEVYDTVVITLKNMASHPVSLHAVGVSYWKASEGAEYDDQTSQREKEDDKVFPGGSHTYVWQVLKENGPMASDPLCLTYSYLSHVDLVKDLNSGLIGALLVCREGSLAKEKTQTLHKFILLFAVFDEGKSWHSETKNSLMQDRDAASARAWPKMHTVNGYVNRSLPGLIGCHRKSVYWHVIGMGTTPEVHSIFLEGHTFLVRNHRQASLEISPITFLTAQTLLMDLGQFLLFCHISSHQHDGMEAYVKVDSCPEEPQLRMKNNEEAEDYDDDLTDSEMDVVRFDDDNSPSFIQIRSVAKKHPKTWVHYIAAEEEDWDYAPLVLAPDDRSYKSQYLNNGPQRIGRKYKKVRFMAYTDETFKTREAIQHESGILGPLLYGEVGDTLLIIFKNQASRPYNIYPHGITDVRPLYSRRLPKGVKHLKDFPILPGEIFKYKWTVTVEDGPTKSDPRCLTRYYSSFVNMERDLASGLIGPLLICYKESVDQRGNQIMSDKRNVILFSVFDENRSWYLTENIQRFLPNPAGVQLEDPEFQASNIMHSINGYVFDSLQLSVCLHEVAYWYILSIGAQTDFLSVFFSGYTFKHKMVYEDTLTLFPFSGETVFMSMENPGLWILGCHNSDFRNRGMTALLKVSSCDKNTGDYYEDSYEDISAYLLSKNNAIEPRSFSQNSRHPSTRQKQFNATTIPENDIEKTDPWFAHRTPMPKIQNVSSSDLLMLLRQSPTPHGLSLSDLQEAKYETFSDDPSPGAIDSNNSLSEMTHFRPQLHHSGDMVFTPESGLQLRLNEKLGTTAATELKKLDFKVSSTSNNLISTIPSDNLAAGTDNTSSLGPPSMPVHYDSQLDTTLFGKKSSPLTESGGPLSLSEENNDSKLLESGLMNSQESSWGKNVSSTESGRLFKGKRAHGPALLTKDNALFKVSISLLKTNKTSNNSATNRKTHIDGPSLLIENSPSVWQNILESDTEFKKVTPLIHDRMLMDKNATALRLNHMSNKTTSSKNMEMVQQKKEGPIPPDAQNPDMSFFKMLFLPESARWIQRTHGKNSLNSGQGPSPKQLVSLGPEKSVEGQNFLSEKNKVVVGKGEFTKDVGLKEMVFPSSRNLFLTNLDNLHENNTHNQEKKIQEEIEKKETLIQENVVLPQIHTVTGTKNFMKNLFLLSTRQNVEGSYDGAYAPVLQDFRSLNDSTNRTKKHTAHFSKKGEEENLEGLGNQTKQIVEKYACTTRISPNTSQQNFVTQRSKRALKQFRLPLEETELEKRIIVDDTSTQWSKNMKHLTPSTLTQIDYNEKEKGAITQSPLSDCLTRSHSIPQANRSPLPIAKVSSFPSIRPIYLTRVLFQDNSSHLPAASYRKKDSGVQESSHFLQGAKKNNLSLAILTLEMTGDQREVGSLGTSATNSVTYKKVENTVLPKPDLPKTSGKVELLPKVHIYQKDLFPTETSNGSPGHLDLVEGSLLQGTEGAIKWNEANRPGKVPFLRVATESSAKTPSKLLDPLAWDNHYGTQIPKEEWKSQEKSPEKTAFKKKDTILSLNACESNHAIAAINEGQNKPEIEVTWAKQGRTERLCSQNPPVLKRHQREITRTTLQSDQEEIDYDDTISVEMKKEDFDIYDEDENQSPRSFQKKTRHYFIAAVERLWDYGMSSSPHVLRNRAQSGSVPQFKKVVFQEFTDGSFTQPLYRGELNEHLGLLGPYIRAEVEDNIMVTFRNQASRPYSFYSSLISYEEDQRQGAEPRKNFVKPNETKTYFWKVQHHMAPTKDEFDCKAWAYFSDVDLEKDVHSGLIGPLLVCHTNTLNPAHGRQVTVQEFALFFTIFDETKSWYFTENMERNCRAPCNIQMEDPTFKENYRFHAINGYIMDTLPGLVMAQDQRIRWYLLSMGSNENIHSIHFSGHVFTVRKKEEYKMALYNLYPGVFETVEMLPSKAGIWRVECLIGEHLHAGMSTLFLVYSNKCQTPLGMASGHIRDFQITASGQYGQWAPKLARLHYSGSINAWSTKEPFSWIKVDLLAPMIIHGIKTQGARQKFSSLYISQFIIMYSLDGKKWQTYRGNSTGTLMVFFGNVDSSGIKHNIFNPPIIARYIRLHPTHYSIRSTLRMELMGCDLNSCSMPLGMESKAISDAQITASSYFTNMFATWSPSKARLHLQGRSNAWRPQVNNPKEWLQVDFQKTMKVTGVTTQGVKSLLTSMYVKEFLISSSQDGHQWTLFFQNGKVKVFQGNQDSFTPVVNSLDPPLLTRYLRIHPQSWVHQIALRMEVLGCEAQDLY
structure (smiles),measurement,setting,value
"CC(C)OC(C)C [DIPE, di-isopropyl ether]",infectivity or visible virus particles by EM,[1],no infectivity or visible virus particles detected
CCOCC [diethyl ether],time to inactivate these viruses,[2],many hours
same,inactivation of the HIV virus,[3],complete inactivation
O=C1CCO1 [β-propiolactone],inactivation of factor VIII,[4],up to 75%

# Reference: patent US20030133929A1 (priority 2002, published 2003)
